The source of these data is patent US9718774B2, “Indole carboxamide derivatives as P2X7 receptor antagonist” (ACTELION PHARMACEUTICALS LTD, priority 2012, dated 2017).

Structures are written as SMILES.

As usually defined, the IC50 is the concentration that gives 50% inhibition.

The experiment deals with T1, human recombinant P2X7 receptor (Homo sapiens, UniProt Q99572).
T1 construct: expressed in transfected cells
T1 sequence (Q99572 1-595): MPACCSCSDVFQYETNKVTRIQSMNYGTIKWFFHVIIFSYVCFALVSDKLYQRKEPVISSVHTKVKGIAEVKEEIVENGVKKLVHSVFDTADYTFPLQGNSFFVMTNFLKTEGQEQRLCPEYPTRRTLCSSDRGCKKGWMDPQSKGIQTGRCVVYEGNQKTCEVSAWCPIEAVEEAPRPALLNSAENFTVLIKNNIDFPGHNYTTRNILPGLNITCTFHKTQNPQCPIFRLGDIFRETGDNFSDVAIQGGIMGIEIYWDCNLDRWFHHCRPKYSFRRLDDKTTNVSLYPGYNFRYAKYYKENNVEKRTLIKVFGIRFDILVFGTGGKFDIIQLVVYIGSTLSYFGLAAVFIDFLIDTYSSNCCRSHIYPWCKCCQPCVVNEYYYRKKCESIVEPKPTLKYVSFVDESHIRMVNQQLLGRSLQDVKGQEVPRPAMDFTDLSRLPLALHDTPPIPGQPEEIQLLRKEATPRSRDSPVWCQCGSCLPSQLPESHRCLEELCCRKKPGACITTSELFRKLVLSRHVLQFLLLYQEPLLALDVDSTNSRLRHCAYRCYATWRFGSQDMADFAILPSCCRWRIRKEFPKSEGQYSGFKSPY
In words: YO-PRO assay: P2X7 receptor antagonistic activity in HEK cells stably expressing P2X7. Format: cell-based. The conditions noted are these: antagonistic activity with respect to the P2X7 receptor, read-out: IC50. In short, it runs like this: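 HEK cells stably transfected with human P2X7 (cloned from blood cDNA) were loaded with 0.5 μM YO-PRO-1. They were exposed to antagonist (10 concentrations, top 10 μM, 1/3 steps, duplicate) together with 250 μM ATP for 90 min, and dye uptake was read by FLIPR at ex 485/em 530. IC50 from maximum fluorescence versus concentration.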
Turning to `Cc1ncc(C(CNC(=O)c2ccc3[nH]ccc3c2Cl)N2CCCC(F)(F)C2)cn1` (racemic) [Example 79, rac-4-Chloro-1H-indole-5-carboxylic acid [2-(3,3-difluoro-piperidin-1-yl)-2-(2-methyl-pyrimidin-5-yl)-ethyl]-amide], the IC50 was 9.3 nM.
Take `Cc1ncc(C(CNC(=O)c2ccc3[nH]ccc3c2Cl)N2CCCCCC2)cn1` (racemic) [Example 80, rac-4-Chloro-1H-indole-5-carboxylic acid [2-azepan-1-yl-2-(2-methyl-pyrimidin-5-yl)-ethyl]-amide]: the IC50 is 25 nM.
With `Cc1ncc(C(CNC(=O)c2ccc3[nH]ccc3c2Cl)N2CCCOCC2)cn1` (racemic) [Example 81, rac-4-Chloro-1H-indole-5-carboxylic acid [2-(2-methyl-pyrimidin-5-yl)-2-[1,4]oxazepan-4-yl-ethyl]-amide] the figure was 26 nM; with `Cc1ncc(C(CNC(=O)c2ccc3[nH]ccc3c2Cl)N2CCC(F)(F)C2)cn1` (racemic) [Example 82, rac-4-Chloro-1H-indole-5-carboxylic acid [2-(3,3-difluoro-pyrrolidin-1-yl)-2-(2-methyl-pyrimidin-5-yl)-ethyl]-amide], 34 nM; with `Cc1ncc(C(CNC(=O)c2ccc3[nH]ccc3c2Cl)NC2CCCC2)cn1` (racemic) [Example 83, rac-4-Chloro-1H-indole-5-carboxylic acid [2-cyclopentylamino-2-(2-methyl-pyrimidin-5-yl)-ethyl]-amide], 162 nM.
With `Cc1ncc(C(CNC(=O)c2ccc3[nH]ccc3c2Cl)NCC2CCCC2)cn1` (racemic) [Example 84, rac-4-Chloro-1H-indole-5-carboxylic acid [2-(cyclopentylmethyl-amino)-2-(2-methyl-pyrimidin-5-yl)-ethyl]-amide] the figure was 1470 nM; with `Cc1ncc(C(CNC(=O)c2ccc3[nH]ccc3c2Cl)NCC(C)C)cn1` (racemic) [Example 85, rac-4-Chloro-1H-indole-5-carboxylic acid [2-isobutylamino-2-(2-methyl-pyrimidin-5-yl)-ethyl]-amide], 303 nM.
Next, `Cc1ncc(C(CNC(=O)c2ccc3[nH]ccc3c2Cl)N(C)CC(C)C)cn1` (racemic) [Example 86, rac-4-Chloro-1H-indole-5-carboxylic acid [2-(isobutyl-methyl-amino)-2-(2-methyl-pyrimidin-5-yl)-ethyl]-amide]: 280 nM; `Cc1ncc(C(CNC(=O)c2ccc3[nH]ccc3c2Cl)N(C)Cc2ccccc2)cn1` (racemic) [Example 87, rac-4-Chloro-1H-indole-5-carboxylic acid [2-(benzyl-methyl-amino)-2-(2-methyl-pyrimidin-5-yl)-ethyl]-amide]: 2650 nM.
As for `CCC(CC)C(CNC(=O)c1ccc2[nH]ccc2c1Cl)c1cncnc1` (racemic) [Example 88, rac-4-Chloro-1H-indole-5-carboxylic acid (3-ethyl-2-pyrimidin-5-yl-pentyl)-amide], the half-maximal inhibitory concentration (IC50) amounted to 15 nM.
Next, `Cc1ncc(C(CNC(=O)c2ccc3[nH]ccc3c2Cl)N2CCN(C(=O)OC(C)(C)C)CC2)cn1` (racemic) [Example 89, rac-4-[2-[(4-Chloro-1H-indole-5-carbonyl)-amino]-1-(2-methyl-pyrimidin-5-yl)-ethyl]-piperazine-1-carboxylic acid tert-butyl ester]: 277 nM.
On to `O=C(NCC(c1cccnn1)N1CCOCC1)c1ccc2[nH]ccc2c1Cl` (racemic) [Example 90, rac-4-Chloro-1H-indole-5-carboxylic acid (2-morpholin-4-yl-2-pyridazin-3-yl-ethyl)-amide], for which the IC50 is 1620 nM.
Next, `O=C(NCC(c1ccnc(O)c1)N1CCOCC1)c1ccc2[nH]ccc2c1Cl` (racemic) [Example 91, rac-4-Chloro-1H-indole-5-carboxylic acid [2-morpholin-4-yl-2-(2-hydroxypyridin-4-yl)-ethyl]-amide]: 353 nM.
